Measurements reported in ChEMBL document CHEMBL1201862, “PubChem BioAssay data set” (2004).
Active and inactive are the calls of the source.

Legend:
[1] = molecular target: Paired box protein Pax-8 (Homo sapiens, UniProt Q06710); assay: PAX8 transcriptional activity inhibition in RMG-I – RMG-I cells, luciferase, cherry-pick, dose response (AID 687027); format: functional, cell-based;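 also: luciferase reporter driven by Pax8 target thyroperoxidase promoter measured by SteadyGlo luminescence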
[2] = loss of viability in HepG2 cells – cell-based, CellTiter-Glo, cherry-picked, cytotoxicity control for Shn3 inhibitor project, dose response (AID 624134); format: functional
[3] = general cell-killing toxicity readout – plate reader, dry powder samples, cytotoxicity control for PAX8 inhibitor project, dose response (AID 743021); format: functional, cell-based
[4] = non-specific 3'UTR reporter inhibition in Clone20-Shn3RL – cell-based, Renilla luciferase, cherry-picked, counter-screen for Shn3 inhibitor project, dose response (AID 624133); format: functional
[5] = reduced cellular PGC1a acetyl-lysine signal – cell-based, cherry-picked samples, dose response (AID 720514); format: functional;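 also: potency may reflect raised or lowered acetylation signal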
[6] = reduction of Shn3 3'UTR-driven luciferase in osteoblasts – cell-based, Clone20 osteoblasts, firefly luciferase, cherry-picked, dose response (AID 624132); format: functional;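 also: firefly luciferase luminescence from reporter carrying the Shn3 3'UTR in osteoblasts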
[7] = molecular target: Melanocortin receptor 4 (Homo sapiens, UniProt P32245); format: functional, cell-based;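 also: Cell-based assay with luminescence read-out, confirmatory dose-response testing for agonist activity of biased ligands at MC4R; human U2OS cells with tagged receptor and beta-arrestin; potency of agonists that increase receptor coupling to beta-arrestin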
[8] = molecular target: Adenosylmethionine-8-amino-7-oxononanoate aminotransferase (Mycobacterium tuberculosis, UniProt P9WQ81); assay: Mycobacterium tuberculosis BioA enzyme inhibitor Measured in Biochemical System Using Plate Reader - 2163-02_Inhibitor_Dose_CherryPick_Activity.; format: functional, Mycobacterium tuberculosis UT205
[9] = molecular target: Fructose-bisphosphate aldolase (Mycobacterium tuberculosis, UniProt P9WQA3); assay: Fluorescence-based biochemical high throughput dose response assay for inhibitors of the fructose-bisphosphate aldolase (FBA) of M. tuberculosis.; format: functional
[10] = viability loss in HEK293 kidney cells – cell-based, cherry-picks, set 5, cytotoxicity control, dose response (AID 1053117); format: functional
[11] = viability loss in A549 lung cancer cells – cell-based, cherry-picks, […], cytotoxicity control, dose response (AID 1053119); format: functional
[12] = viability loss in HepG2 hepatoma cells – cell-based, cherry-picks, set 5, cytotoxicity control, dose response (AID 1053118); format: functional
[13] = molecular target: Aryl hydrocarbon receptor (Homo sapiens, UniProt P35869); settings: Potency;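 also: confirmatory quantitative high-throughput screen measuring activation of the AhR signaling pathway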
Chain of Aryl hydrocarbon receptor (P35869 whole entry): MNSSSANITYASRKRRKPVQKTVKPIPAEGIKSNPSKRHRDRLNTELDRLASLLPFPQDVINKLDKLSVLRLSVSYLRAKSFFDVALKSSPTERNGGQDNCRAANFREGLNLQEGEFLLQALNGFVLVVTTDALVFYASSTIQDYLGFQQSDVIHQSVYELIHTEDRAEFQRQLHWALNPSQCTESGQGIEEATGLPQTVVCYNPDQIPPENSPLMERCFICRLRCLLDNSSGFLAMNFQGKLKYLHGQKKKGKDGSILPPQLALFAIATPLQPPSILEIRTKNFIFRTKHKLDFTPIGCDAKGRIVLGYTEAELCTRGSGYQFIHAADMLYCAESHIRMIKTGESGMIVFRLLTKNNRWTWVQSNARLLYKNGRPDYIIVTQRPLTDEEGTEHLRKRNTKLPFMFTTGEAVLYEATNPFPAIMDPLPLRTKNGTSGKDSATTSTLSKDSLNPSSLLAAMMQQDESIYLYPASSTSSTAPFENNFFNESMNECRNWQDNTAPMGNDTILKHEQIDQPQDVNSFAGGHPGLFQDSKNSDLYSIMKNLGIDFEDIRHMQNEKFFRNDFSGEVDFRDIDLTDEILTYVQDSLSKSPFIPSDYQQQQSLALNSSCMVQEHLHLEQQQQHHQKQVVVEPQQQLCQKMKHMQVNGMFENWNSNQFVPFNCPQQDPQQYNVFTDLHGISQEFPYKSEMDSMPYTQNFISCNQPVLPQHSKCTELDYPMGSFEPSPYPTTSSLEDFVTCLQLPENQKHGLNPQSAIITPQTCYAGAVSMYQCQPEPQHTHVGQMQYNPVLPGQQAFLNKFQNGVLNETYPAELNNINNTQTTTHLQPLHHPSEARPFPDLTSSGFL

Chain of Adenosylmethionine-8-amino-7-oxononanoate aminotransferase (P9WQ81 whole entry): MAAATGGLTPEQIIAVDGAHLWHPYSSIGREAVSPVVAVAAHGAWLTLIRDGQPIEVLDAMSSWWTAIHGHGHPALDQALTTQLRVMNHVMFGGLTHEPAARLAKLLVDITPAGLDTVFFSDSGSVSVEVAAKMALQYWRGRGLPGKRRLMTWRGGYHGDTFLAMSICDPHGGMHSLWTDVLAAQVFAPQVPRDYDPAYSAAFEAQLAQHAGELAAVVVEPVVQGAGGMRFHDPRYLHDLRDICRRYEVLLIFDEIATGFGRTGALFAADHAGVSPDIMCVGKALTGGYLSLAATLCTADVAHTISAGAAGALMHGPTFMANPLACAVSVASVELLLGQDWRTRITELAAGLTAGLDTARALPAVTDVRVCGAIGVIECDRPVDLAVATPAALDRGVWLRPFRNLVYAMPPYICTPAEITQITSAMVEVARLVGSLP
Chain of Melanocortin receptor 4 (P32245 whole entry): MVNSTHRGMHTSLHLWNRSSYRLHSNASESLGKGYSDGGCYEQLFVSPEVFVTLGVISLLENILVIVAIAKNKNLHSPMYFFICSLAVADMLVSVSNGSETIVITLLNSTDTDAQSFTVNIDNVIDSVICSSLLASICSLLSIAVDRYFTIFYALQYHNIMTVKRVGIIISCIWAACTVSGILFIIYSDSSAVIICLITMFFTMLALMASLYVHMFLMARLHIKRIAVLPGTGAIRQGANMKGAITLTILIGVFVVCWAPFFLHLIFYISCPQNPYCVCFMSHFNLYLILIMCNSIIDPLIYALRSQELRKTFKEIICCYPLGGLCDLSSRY
Chain of Paired box protein Pax-8 (Q06710 whole entry): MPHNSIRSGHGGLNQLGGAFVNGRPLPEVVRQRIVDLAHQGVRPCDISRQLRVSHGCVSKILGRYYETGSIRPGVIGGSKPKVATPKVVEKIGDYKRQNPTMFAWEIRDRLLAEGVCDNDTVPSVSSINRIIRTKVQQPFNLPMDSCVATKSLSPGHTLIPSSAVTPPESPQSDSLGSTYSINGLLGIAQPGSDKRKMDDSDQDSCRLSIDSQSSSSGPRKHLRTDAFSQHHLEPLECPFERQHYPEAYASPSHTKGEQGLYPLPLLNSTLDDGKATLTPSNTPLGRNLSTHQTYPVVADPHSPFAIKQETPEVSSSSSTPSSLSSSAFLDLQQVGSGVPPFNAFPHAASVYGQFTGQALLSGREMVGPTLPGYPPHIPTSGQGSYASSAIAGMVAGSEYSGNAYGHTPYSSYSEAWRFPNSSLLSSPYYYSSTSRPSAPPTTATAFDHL
Chain of Fructose-bisphosphate aldolase (P9WQA3 whole entry): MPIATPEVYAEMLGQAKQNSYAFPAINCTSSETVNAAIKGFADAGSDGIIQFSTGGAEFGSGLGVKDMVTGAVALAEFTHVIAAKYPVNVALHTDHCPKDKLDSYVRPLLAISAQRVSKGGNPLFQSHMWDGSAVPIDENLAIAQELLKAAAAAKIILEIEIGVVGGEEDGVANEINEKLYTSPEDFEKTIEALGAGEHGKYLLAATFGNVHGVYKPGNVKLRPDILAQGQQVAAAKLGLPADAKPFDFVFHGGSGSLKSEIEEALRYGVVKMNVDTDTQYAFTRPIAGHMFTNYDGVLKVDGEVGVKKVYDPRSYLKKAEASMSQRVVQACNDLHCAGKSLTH

For `CCN1CCN(Cc2ccc(NC(=O)c3cc(NC(=O)c4cncc(-c5ccc(C#N)cc5)c4)cc(OC)c3)cc2C(F)(F)F)CC1`, the AC50 [1] was 7.76 µM (active), the AC50 [2] was 8.15 µM (active) and the AC50 [3] was 48.2 µM (active). The AC50 [4] was 7.18 µM (active), the AC50 [5] was 6.66 µM (active) and the AC50 [6] was 3.36 µM (active). For the same molecule, the EC50 [7] was > 89.2 µM (inactive).
With `O=C(Cc1ccccc1)N1CC[C@@H]2[C@H]1c1cc(Br)ccc1N[C@@H]2CO` the AC50 [8] was 2.74 µM (active).
With `COc1ccc(OC)c2c1C(=O)CC2C` (centres undefined) the IC50 [9] was 2.23 µM (active).
In the case of `CCNC(=O)[C@H]1[C@H](CO)[C@H]2Cn3c(ccc(-c4cccc(F)c4)c3=O)[C@H]2N1C(=O)Cc1cccnc1`, the AC50 [8] is reported as 17 µM (active).
In the case of `CO[C@H]1CN(C)C(=O)c2ccc(NC(=O)c3ccc(-c4ccccc4)cc3)cc2OC[C@H](C)NC[C@@H]1C`, the AC50 [10] is reported as > 52 µM (inactive), the AC50 [11] is reported as > 52 µM (inactive) and the AC50 [5] is reported as 31.9 µM (active). For the same molecule, the AC50 [12] was > 52 µM (inactive).
In the case of `CO[C@H]1CN(C)C(=O)c2cc(NC(=O)Nc3cc(Cl)cc(Cl)c3)ccc2OC[C@H](C)NC[C@H]1C`, the AC50 [10] is reported as 34.3 µM (active), the AC50 [11] is reported as > 52 µM (inactive) and the AC50 [12] is reported as 16.6 µM (active).
For `O=C(Nc1ccccc1)Nc1cnns1` [THIDIAZURON], the AC50 [13] was 50.1 µM (inconclusive).
For `O=P(OCC(Br)CBr)(OCC(Br)CBr)OCC(Br)CBr` (centres undefined) [TRIS(2,3-DIBROMOPROPYL)PHOSPHATE], the AC50 [13] was 56.2 µM (inconclusive).
